ChEMBL document CHEMBL1133220, “Potent new leucine aminopeptidase inhibitor of novel structure synthesised by a modified Wadsworth-Emmons (Horner) Wittig procedure” (Bioorg Med Chem Lett, 2000)

Target: Cytosol aminopeptidase (Homo sapiens, UniProt P28838)
Experiment: Inhibitory activity against leucine aminopeptidase

Cytosol aminopeptidase, sequence (P28838 whole entry): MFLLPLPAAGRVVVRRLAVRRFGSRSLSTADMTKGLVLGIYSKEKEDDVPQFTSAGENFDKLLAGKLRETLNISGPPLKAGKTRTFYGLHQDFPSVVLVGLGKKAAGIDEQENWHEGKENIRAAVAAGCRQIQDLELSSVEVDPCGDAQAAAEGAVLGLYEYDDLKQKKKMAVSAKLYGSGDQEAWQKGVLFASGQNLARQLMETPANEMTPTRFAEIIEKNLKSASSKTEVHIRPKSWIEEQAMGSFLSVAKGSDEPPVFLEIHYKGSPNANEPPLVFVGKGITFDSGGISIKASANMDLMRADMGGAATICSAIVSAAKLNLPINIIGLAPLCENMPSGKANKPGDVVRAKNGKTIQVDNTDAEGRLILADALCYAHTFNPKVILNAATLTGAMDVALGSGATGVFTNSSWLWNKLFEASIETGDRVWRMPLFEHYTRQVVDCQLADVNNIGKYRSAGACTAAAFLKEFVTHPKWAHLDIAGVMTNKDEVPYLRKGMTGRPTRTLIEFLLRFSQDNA

- Ki: 76 nM
Structure (SMILES): COC(=O)/C=C\C(=O)[C@@H](N)CC(C)C
